Data as given in ChEMBL document CHEMBL5325509, “Pyrrolidinedione-thiazolidinone hybrid molecules with potent cytotoxic effect in squamous cell carcinoma SCC-15 cells” (Bioorg Med Chem, 2023).
Activity calls are given as the source filed them. The calls are words filed in the database; no cut-off is given here.

Columns and labels:
SCC-15 [1] = assay: Cytotoxicity against human SCC-15 cells assessed as LDH release at 10 uM incubated for 24 hrs relative to control; assay type: functional
SCC-15 [2] = assay: Cytotoxicity against human SCC-15 cells assessed as decrease in cellular metabolic activity at 100 uM incubated for 24 hrs by resazurin reduction assay relative to control; assay type: functional; parameters: scale not given: the % may be the effect or the level left
Leukemic tumor cell line = assay: Cytotoxicity against human Leukemic tumor cell line assessed as inhibition of cell growth measured at 72 hrs; assay type: functional, cell-based
[3] = Upregulation of Caspase-3 activity in human SCC-15 cells at 100 uM measured after 48 hrs in presence of Ac-DEVD-AMC by fluorescence microplate reader analysis; assay type: functional
[4] = Upregulation of NRFL2 mRNA expression in PPARgamma knockdown human SCC-15 cells at 1 uM measured after 24 hrs by RT-PCR analysis; assay type: functional
[5] = Downregulation of AHR expression in PPARgamma-silenced human SCC-15 cells at 1 uM incubated for 48 hrs Western blot analysis relative to SiRNA control; assay type: functional
[6] = Upregulation of Ki67 expression in PPARgamma-silenced human SCC-15 cells at 1 uM incubated for 48 hrs Western blot analysis relative to siRNA control; assay type: functional
BALB/3T3 = assay: Cytotoxicity against mouse BALB/3T3 cells assessed reduction in cellular metabolic activity at 0.1 to 100 uM incubated for 24 to 72 hrs by MTT assay; assay type: toxicity, cell-based; settings: balb/3t3, 100 µM, dose lower 0.1 µM, time lower 24 hrs, dose upper 100 µM, time upper 72 hrs
SCC-15 [7] = assay: Cytotoxicity against human SCC-15 cells assessed as LDH release incubated for 48 hrs; assay type: functional, cell-based; settings: SCC-15, 48 h
SCC-15 [8] = assay: Cytotoxicity against human SCC-15 cells assessed as LDH release at 100 uM incubated for 24 hrs relative to control; assay type: functional
[9] = Downregulation of PCNA expression in PPARgamma-silenced human SCC-15 cells at 1 uM incubated for 48 hrs Western blot analysis relative to control; assay type: functional
SCC-15 [10] = assay: Cytotoxicity against human SCC-15 cells assessed as LDH release incubated for 24 hrs; assay type: functional, cell-based; settings: SCC-15, 24 h
[11] = Upregulation of PPARgamma expression in human SCC-15 cells at 1 uM incubated for 48 hrs Western blot analysis relative to control; assay type: functional
[12] = Cytotoxicity against human HaCaT cells assessed reduction in cellular metabolic activity incubated for 24 to 72 hrs by MTT assay; assay type: toxicity, cell-based
SCC-15 [13] = assay: Induction of intracellular ROS generation in human SCC-15 cells incubated for 24 to 48 hrs by DCFH-DA staining based immunofluorescence analysis; assay type: functional, cell-based; settings: dose 0.001-100 µM, time 24-48 hrs
[14] = Upregulation of PPARgamma expression in PPARgamma-silenced human SCC-15 cells at 1 uM incubated for 48 hrs Western blot analysis relative to control; assay type: functional
[15] = Upregulation of AHR mRNA expression in PPARgamma-silenced human SCC-15 cells at 1 uM measured after 24 hrs by RT-PCR analysis; assay type: functional
[16] = Upregulation of AHR mRNA expression in PPARgamma knockdown human SCC-15 cells at 1 uM measured after 24 hrs by RT-PCR analysis; assay type: functional
SCC-15 [17] = assay: Cytotoxicity against human SCC-15 cells assessed as decrease in cellular metabolic activity incubated for 48 hrs by resazurin reduction assay; assay type: functional, cell-based; settings: SCC-15, 48 h
[18] = Upregulation of Caspase-3 activity in human SCC-15 cells at 100 uM measured after 24 hrs in presence of Ac-DEVD-AMC by fluorescence microplate reader analysis; assay type: functional
[19] = Cytotoxicity against mouse BALB/3T3 cells assessed reduction in cellular metabolic activity incubated for 24 to 72 hrs by MTT assay; assay type: toxicity, cell-based
SCC-15 [20] = assay: Cytotoxicity against human SCC-15 cells assessed as decrease in cellular metabolic activity at 50 uM incubated for 48 hrs by resazurin reduction assay relative to control; assay type: functional; parameters: scale not given: the % may be the effect or the level left
SCC-15 [21] = assay: Cytotoxicity against human SCC-15 cells assessed as decrease in cellular metabolic activity incubated for 24 hrs by resazurin reduction assay; assay type: functional, cell-based; settings: SCC-15, 24 h
SCC-15 [22] = assay: Cytotoxicity against human SCC-15 cells assessed as decrease in cellular metabolic activity at 50 uM incubated for 24 hrs by resazurin reduction assay relative to control; assay type: functional; parameters: scale not given: the % may be the effect or the level left
[23] = Upregulation of PCNA expression in PPARgamma-silenced human SCC-15 cells at 1 uM incubated for 48 hrs Western blot analysis relative to siRNA control; assay type: functional
HaCaT = assay: Cytotoxicity against human HaCaT cells assessed reduction in cellular metabolic activity at 0.1 to 100 uM incubated for 24 to 72 hrs by MTT assay; assay type: toxicity, cell-based; settings: dose lower 0.1 µM, time lower 24 hrs, dose upper 100 µM, time upper 72 hrs
SCC-15 [24] = assay: Cytotoxicity against human SCC-15 cells assessed as decrease in cellular metabolic activity at 10 uM incubated for 48 hrs by resazurin reduction assay relative to control; assay type: functional; parameters: scale not given: the % may be the effect or the level left
[25] = Downregulation of NRFL2 mRNA expression in human SCC-15 cells at 1 uM measured after 24 hrs by RT-PCR analysis (reference value: 18.36 %); assay type: functional
SCC-15 [26] = assay: Induction of intracellular ROS generation in human SCC-15 cells at 50 to 100 uM incubated for 48 hrs by DCFH-DA staining based immunofluorescence analysis; assay type: functional; settings: dose 50-100 µM
Glioblastoma cell line = assay: Cytotoxicity against human Glioblastoma cell line assessed as inhibition of cell growth measured at 72 hrs; assay type: functional, cell-based
[27] = Cytotoxicity against human Cervical carcinoma cell assessed as inhibition of cell growth measured at 72 hrs; assay type: functional, cell-based
SCC-15 [28] = assay: Induction of intracellular ROS generation in human SCC-15 cells at 0.001 to 10 uM incubated for 24 to 48 hrs by DCFH-DA staining based immunofluorescence analysis; assay type: functional, cell-based; settings: dose 0.001-10 µM, time 24-48 hrs
SCC-15 [29] = assay: Cytotoxicity against human SCC-15 cells assessed as LDH release at 100 uM incubated for 48 hrs relative to control; assay type: functional
SCC-15 [30] = assay: Cytotoxicity against human SCC-15 cells assessed as decrease in cellular metabolic activity at 10 uM incubated for 24 hrs by resazurin reduction assay relative to control; assay type: functional; parameters: scale not given: the % may be the effect or the level left
[31] = Downregulation of PPARgamma mRNA expression in human SCC-15 cells at 1 uM measured after 24 hrs by RT-PCR analysis (reference value: 79.68 %); assay type: functional
[32] = Downregulation of AHR mRNA expression in human SCC-15 cells at 1 uM measured after 24 hrs by RT-PCR analysis (reference value: 17.30 %); assay type: functional
Breast carcinoma cell = assay: Cytotoxicity against human Breast carcinoma cell assessed as inhibition of cell growth measured at 72 hrs; assay type: functional, cell-based
SCC-15 [33] = assay: Induction of intracellular ROS generation in human SCC-15 cells at 0.001 to 100 uM by DCFH-DA staining based immunofluorescence analysis; assay type: functional, cell-based; settings: dose 0.001-100 µM, time 24-48 hrs, TDE = time-dependent effect
[34] = Upregulation of AHR expression in PPARgamma-silenced human SCC-15 cells at 1 uM incubated for 48 hrs Western blot analysis relative to control; assay type: functional
SCC-15 [35] = assay: Cytotoxicity against human SCC-15 cells assessed as LDH release at 50 uM incubated for 24 hrs relative to control; assay type: functional
SCC-15 [36] = assay: Induction of intracellular ROS generation in human SCC-15 cells at 50 to 100 uM incubated for 24 hrs by DCFH-DA staining based immunofluorescence analysis; assay type: functional; settings: dose 50-100 µM
[37] = Cytotoxicity against human HaCaT cells assessed reduction in cellular metabolic activity incubated for 72 hrs by MTT assay; assay type: toxicity, cell-based
Lung cancer cell line = assay: Cytotoxicity against human Lung cancer cell line assessed as inhibition of cell growth measured at 72 hrs; assay type: functional, cell-based
SCC-15 [38] = assay: Cytotoxicity against human SCC-15 cells assessed as decrease in cellular metabolic activity at 100 uM incubated for 48 hrs by resazurin reduction assay relative to control; assay type: functional; parameters: scale not given: the % may be the effect or the level left
Colon carcinoma cell = assay: Cytotoxicity against human Colon carcinoma cell assessed as inhibition of cell growth measured at 72 hrs; assay type: functional, cell-based
SCC-15 [39] = assay: Cytotoxicity against human SCC-15 cells assessed as LDH release at 50 uM incubated for 48 hrs relative to control; assay type: functional
[40] = Downregulation of PPARgamma mRNA expression in PPARgamma-silenced human SCC-15 cells at 1 uM measured after 24 hrs by RT-PCR analysis; assay type: functional
[41] = Upregulation of Ki67 expression in human SCC-15 cells at 1 uM incubated for 48 hrs Western blot analysis relative to control; assay type: functional

O=C1CC(N2C(=O)/C(=C/C(Cl)=C/c3ccc([N+](=O)[O-])cc3)SC2=S)C(=O)N1c1ccc(O)cc1 (stereo not drawn)
Activity (SCC-15 [1]): 16.8% | Activity (SCC-15 [2]): 79.14% | IC50 (Leukemic tumor cell line): 1 µM | Activity [3]: 62.85% | Activity [4]: 5.73% | Activity [5]: 32.59% | Activity [6]: 41.15% | Activity (BALB/3T3): Non-Toxic | EC50 (SCC-15 [7]): 32.8 µM | Activity (SCC-15 [8]): 115.3% | Activity [9]: 66.68% | EC50 (SCC-15 [10]): 24.9 µM | Activity [11]: 18.58% | IC50 [12]: > 100 µM | Activity (SCC-15 [13]): Dose-Dependent Effect | Activity [14]: 19.96% | Activity [15]: 33.59% | Activity [16]: 15.99% | IC50 (SCC-15 [17]): 6.72 µM | Activity [18]: 74.97% | IC50 [19]: > 100 µM | Activity (SCC-15 [20]): 82.23% | IC50 (SCC-15 [21]): 17.7 µM | Activity (SCC-15 [22]): 77% | Activity [23]: 23.6% | Activity (HaCaT): Non-Toxic | Activity (SCC-15 [24]): 69.88% | Activity [25]: 13.77% | Activity (SCC-15 [26]): 23.37% | IC50 (Glioblastoma cell line): 1 µM | IC50 [27]: 1 µM | Activity (SCC-15 [28]): inactive | Activity (SCC-15 [29]): 90.92% | Activity (SCC-15 [30]): 43.58% | Activity [31]: 21.32% | Activity [32]: 34.9% | IC50 (Breast carcinoma cell): 1 µM | Activity (SCC-15 [33]): Tde | Activity [34]: 4.74% | Activity (SCC-15 [35]): 106.2% | Activity (SCC-15 [36]): 11.01% | IC50 at 72 h [37]: 73.6 µM | IC50 (Lung cancer cell line): 1 µM | Activity (SCC-15 [38]): 83.18% | IC50 (Colon carcinoma cell): 1 µM | Activity (SCC-15 [39]): 150.7% | Activity [40]: 60.85% | Activity [41]: 28.61%
